The source made the active and inactive calls. No cut-off for these calls is given here.
Legend:
4T1-Luc [1] = test: Anti-metastatic activity in mouse 4T1-Luc cells assessed as reduction in condensed nuclei at 25 to 50 mg/kg, po measured after 20 days by H and E staining based analysis; format: functional, organism-based; conditions: dose 25-50 mg/kg, time 20.0 day
[2] = Toxicity in female BALB/c mouse assessed as effect on kidney at 25 to 50 mg/kg, po qd measured after 18 days by H and E staining based analysis; format: organism-based; conditions: in vivo, 432 h, dose 25-50 mg/kg, time 18 day
4T1 [3] = test: Antitumor activity against mouse 4T1 cells implanted in female BALB/c mouse model assessed as increase in LC3B expression at 50 mg/kg, po in presence of chloroquine by immunohistochemical analysis; format: functional, organism-based
Mitochondrial membrane [4] = test: Induction of mitochondrial membrane potential loss in human MCF7 cells assessed as increase in JC-1 monomers by measuring increase in green fluorescence at 1 uM by flow cytometry analysis (reference value: 38.0%); format: cell membranes
[5] = Toxicity in female BALB/c mouse assessed as effect on heart at 25 to 50 mg/kg, po qd measured after 18 days by H and E staining based analysis; format: organism-based; conditions: in vivo, 432 h, dose 25-50 mg/kg, time 18 day
MCF7 [6] = test: Inhibition of colony formation in human MCF7 cells harbouring ERK2 knockout at 1 uM incubated for 48 hrs by crystal violet staining based microscopic analysis; format: functional, cell-based
[7] = Cmax in Sprague-Dawley rat at 1 mg/kg, iv by LC-MS/MS analysis; format: ADME, organism-based; conditions: in vivo
MCF7 [8] = test: Upregulation of E-cadherin expression in human MCF7 cells at 0.5 to 2 uM; format: functional, cell-based; conditions: dose 0.5-2 µM
MCF7 [9] = test: Induction of apoptosis in human MCF7 cells assessed as early apoptotic cells at 2 uM incubated for 48 hrs by Annexin V/FITC and PI staining based flow cytometry analysis (reference value: 1.1%); format: functional
[10] = target: Vascular endothelial growth factor receptor 3 (Homo sapiens) (UniProt P35916); test: Inhibition of human FLT4 at 10000 nM by DiscoverX KINOMEscan assay relative to control
MCF-10A = test: Antiproliferative activity against human MCF-10A cells incubated for 48 hrs by CCK-8 method; format: functional, cell-based
MCF7 [11] = test: Upregulation of ERK1/2 phosphorylation expression in human MCF7 cells measured after 30 mins to 4 hrs by Western blot analysis; format: functional, cell-based; conditions: dose 0.5-2 µM, time 30-240 min
MCF7 [12] = test: Induction of apoptosis in human MCF7 cells assessed as increase in caspase-3 cleavage at 0.5 to 2 uM by Western blot analysis; format: functional, cell-based; conditions: dose 0.5-2 µM
4T1 [13] = test: Antitumor activity against mouse 4T1 cells implanted in female BALB/c mouse model assessed as increase in ERK1/2 phosphorylation at 50 mg/kg, po qd measured from 12 to 24 hrs by immunohistochemical analysis; format: functional, organism-based; conditions: time 12-24 hrs
[14] = Toxicity in female BALB/c mouse assessed as effect on liver at 50 mg/kg, po qd measured after 18 days in presence of chloroquine by H and E staining based analysis; format: organism-based; conditions: in vivo, 432 h, time 18 day
MCF7 [15] = test: Induction of autophagic flux in human MCF7 cells assessed as decrease in p62 protein level at 0.5 to 2 uM incubated for 48 hrs by Western blotting analysis; format: functional, cell-based; conditions: dose 0.5-2 µM
[16] = Half life in Sprague-Dawley rat at 1 mg/kg, iv by LC-MS/MS analysis; format: ADME, organism-based; conditions: in vivo
[17] = Toxicity in female BALB/c mouse assessed as change in body weight at 25 to 50 mg/kg, po qd measured after 18 days; format: organism-based; conditions: in vivo, 432 h, dose 25-50 mg/kg, time 18 day
[18] = Cmax in Sprague-Dawley rat at 10 mg/kg, po by LC-MS/MS analysis; format: ADME, organism-based; conditions: in vivo
[19] = Toxicity in female BALB/c mouse assessed as effect GLU level in serum at 25 to 50 mg/kg, po qd measured after 18 days by biochemical analysis; format: organism-based; conditions: in vivo, 432 h, dose 25-50 mg/kg, time 18 day
4T1 [20] = test: Antitumor activity against mouse 4T1 cells implanted in female BALB/c mouse model assessed as reduction in Ki67 expression at 50 mg/kg, po in presence of chloroquine by immunohistochemical analysis; format: functional, organism-based
MCF7 [21] = test: Induction of apoptosis in human MCF7 cells assessed as late apoptotic cells at 1 uM incubated for 48 hrs in presence of chloroquine by Annexin V/FITC and PI staining based flow cytometry analysis (reference value: 4.90%); format: functional
[22] = target: Mitogen-activated protein kinase 1 (Homo sapiens, UniProt P28482); test: Induction of thermal stabilization of ERK2 (unknown origin) at 10 uM by differential scanning fluorimetry analysis
4T1 [23] = test: Antitumor activity against mouse 4T1 cells implanted in female BALB/c mouse model assessed as reduction in c-Myc phosphorylation level at 50 mg/kg, po qd by immunohistochemical analysis; format: functional, organism-based
MCF7 [24] = test: Upregulation of ERK1/2 phosphorylation expression in human MCF7 cells at 2 uM measured after 8 hrs by Western blot analysis; format: functional, cell-based
MCF7 [25] = test: Induction of autophagy in human MCF7 cells assessed as increase in MDC positive cells at 0.5 to 2 uM by MDC staining based microscopic analysis; format: functional, cell-based; conditions: dose 0.5-2 µM
4T1 [26] = test: Antitumor activity against mouse 4T1 cells implanted in female BALB/c mouse model assessed as tumor growth inhibition at 50 mg/kg, po qd measured for 18 days in presence of chloroquine relative to control; format: functional; conditions: 4T1, 432 h, time 18 day, read-out: TGI
MCF7 [27] = test: Induction of apoptosis in human MCF7 cells assessed as early apoptotic cells at 1 uM incubated for 48 hrs by Annexin V/FITC and PI staining based flow cytometry analysis (reference value: 6.64%); format: functional
Mitochondrial membrane [28] = test: Induction of mitochondrial membrane potential loss in human MCF7 cells assessed as reduction in JC-1 aggregates by measuring decrease in red fluorescence at 1 uM by flow cytometry analysis (reference value: 24.7%); format: cell membranes; design: scale not given: the % may be the effect or the level left
MCF7 [29] = test: Upregulation of ERK1/2 phosphorylation expression in human MCF7 cells at 2 uM measured after 8 hrs by immunofluorescence analysis; format: functional, cell-based
[30] = target: Macrophage colony-stimulating factor 1 receptor (Homo sapiens) (UniProt P07333); test: Inhibition of human FMS at 10000 nM by DiscoverX KINOMEscan assay relative to control
MCF7 [31] = test: Induction of autophagy in human MCF7 cells assessed as upregulation of LC3B-II expression incubated for 48 hrs by Western blotting analysis; format: functional, cell-based; conditions: dose 0.5-2 µM
[32] = Toxicity in female BALB/c mouse assessed as effect on spleen at 25 to 50 mg/kg, po qd measured after 18 days by H and E staining based analysis; format: organism-based; conditions: in vivo, 432 h, dose 25-50 mg/kg, time 18 day
4T1-Luc [33] = test: Anti-metastatic activity in mouse 4T1-Luc cells assessed as reduction in enlarged alveolar space at 25 to 50 mg/kg, po measured after 20 days by H and E staining based analysis; format: functional, organism-based; conditions: dose 25-50 mg/kg, time 20.0 day
MCF7 [34] = test: Induction of apoptosis in human MCF7 cells assessed as early apoptotic cells at 1 uM incubated for 48 hrs by Annexin V/FITC and PI staining based flow cytometry analysis (reference value: 1.1%); format: functional
MCF7 [35] = test: Induction of autophagic flux in human MCF7 cells assessed as colocalization of LAMP1 at 1 uM incubated for 48 hrs in presence of chloroquine by immunofluorescence analysis; format: functional, cell-based

Vascular endothelial growth factor receptor 3 (Homo sapiens), sequence (P35916 whole entry): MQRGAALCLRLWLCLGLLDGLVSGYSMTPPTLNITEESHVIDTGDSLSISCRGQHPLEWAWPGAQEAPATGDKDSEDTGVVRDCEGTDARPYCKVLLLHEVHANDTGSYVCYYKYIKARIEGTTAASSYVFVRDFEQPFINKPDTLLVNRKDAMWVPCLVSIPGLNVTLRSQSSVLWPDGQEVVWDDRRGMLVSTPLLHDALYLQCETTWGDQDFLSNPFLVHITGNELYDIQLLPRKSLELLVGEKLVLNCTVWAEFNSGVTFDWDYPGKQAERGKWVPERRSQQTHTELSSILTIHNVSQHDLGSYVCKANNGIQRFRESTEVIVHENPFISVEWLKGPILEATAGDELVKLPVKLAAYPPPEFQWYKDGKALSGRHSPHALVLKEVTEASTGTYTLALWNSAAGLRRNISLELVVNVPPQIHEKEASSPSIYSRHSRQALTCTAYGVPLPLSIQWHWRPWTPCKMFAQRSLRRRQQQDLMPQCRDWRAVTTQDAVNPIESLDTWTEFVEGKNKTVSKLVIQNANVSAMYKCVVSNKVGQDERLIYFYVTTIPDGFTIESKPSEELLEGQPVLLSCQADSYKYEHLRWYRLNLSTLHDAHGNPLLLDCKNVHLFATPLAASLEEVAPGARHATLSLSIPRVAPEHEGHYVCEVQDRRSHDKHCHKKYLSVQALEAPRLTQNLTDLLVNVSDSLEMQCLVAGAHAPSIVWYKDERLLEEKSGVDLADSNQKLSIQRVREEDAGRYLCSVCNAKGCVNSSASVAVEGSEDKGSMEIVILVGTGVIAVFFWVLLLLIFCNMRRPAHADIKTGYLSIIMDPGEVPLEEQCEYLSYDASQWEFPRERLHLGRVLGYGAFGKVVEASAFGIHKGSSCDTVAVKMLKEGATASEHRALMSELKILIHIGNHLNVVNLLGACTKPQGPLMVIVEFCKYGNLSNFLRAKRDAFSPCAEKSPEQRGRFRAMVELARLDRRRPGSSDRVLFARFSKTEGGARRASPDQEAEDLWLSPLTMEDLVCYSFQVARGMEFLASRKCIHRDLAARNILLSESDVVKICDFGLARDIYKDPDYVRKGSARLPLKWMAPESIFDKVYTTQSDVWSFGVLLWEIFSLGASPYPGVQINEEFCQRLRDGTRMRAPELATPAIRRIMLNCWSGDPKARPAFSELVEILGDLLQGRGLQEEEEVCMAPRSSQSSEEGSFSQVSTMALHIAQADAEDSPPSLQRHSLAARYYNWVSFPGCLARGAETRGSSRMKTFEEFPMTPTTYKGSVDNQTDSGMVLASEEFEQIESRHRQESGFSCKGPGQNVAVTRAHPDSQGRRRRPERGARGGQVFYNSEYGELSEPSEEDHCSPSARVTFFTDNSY
Macrophage colony-stimulating factor 1 receptor (Homo sapiens), sequence (P07333 whole entry): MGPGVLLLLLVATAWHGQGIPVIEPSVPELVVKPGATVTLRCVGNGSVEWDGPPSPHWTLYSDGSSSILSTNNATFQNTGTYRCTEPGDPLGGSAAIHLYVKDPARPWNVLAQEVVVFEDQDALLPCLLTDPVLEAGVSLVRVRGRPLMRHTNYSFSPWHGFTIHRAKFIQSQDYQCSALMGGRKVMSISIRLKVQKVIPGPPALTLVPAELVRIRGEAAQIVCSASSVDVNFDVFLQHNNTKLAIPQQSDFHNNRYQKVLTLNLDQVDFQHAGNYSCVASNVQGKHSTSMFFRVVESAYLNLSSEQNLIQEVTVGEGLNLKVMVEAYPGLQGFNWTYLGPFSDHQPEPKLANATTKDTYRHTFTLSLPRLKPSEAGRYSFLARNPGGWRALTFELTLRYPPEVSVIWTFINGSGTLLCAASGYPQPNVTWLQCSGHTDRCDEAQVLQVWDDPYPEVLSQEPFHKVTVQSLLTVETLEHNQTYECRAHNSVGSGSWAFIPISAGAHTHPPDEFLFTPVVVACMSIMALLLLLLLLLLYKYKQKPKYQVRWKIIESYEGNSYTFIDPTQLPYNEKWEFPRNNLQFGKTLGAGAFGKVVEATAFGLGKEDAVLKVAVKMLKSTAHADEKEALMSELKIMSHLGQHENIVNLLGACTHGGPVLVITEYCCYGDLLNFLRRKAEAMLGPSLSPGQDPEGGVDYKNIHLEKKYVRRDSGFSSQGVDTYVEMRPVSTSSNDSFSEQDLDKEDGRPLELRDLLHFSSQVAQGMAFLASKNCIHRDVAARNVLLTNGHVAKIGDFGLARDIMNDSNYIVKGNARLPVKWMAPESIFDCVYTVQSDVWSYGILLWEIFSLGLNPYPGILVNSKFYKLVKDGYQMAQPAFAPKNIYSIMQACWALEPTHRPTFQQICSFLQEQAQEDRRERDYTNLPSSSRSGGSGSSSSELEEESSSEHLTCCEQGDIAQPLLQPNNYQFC
Mitogen-activated protein kinase 1, sequence (P28482 whole entry): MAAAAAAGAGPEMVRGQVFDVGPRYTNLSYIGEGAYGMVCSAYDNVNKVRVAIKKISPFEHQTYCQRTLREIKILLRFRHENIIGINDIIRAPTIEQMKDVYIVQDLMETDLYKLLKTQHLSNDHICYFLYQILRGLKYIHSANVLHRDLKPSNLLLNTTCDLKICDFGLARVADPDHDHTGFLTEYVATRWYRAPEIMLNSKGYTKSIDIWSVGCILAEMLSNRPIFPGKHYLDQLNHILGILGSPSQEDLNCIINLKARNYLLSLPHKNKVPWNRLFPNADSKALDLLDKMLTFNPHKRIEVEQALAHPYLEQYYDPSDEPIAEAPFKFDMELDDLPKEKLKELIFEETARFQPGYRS

## O=C(Nc1cc(C(F)(F)F)cc(C(F)(F)F)c1)N[C@@H](Cc1ccccc1)Cn1c[n+](Cc2ccc3ccccc3c2)c2ccccc21.[Br-]
4T1-Luc [1]
  Activity: Active
[2]
  Activity: Non-toxic
4T1 [3]
  Activity: Active
Mitochondrial membrane [4]
  Activity: 48.9%
[5]
  Activity: Non-toxic
MCF7 [6]
  inhibition: inactive
[7]
  Cmax: 534 ng/mL
MCF7 [8]
  Activity: Active
MCF7 [9]
  Activity: 12.9%
[10]
  inhibition: 18%
MCF-10A
  IC50: > 10 µM
MCF7 [11]
  Activity: Dose-dependent-effect
MCF7 [12]
  Activity: Active
4T1 [13]
  Activity: inactive
[14]
  Activity: Non-toxic
MCF7 [15]
  Activity: Active
[16]
  half-life: 3.15 h
[17]
  Activity: Non-toxic
[18]
  Cmax: 770 ng/mL
[19]
  Activity: Non-toxic
4T1 [20]
  Activity: Active
MCF7 [21]
  Activity: 26.9%
[22]
  Activity: Active
4T1 [23]
  Activity: Active
MCF7 [24]
  Activity: Active
MCF7 [25]
  Activity: Active
4T1 [26]
  inhibition in vivo at 50 mg/kg: 88.1%
MCF7 [27]
  Activity: 4.58%
Mitochondrial membrane [28]
  Activity: 9.86%
MCF7 [29]
  Activity: Active
[30]
  inhibition: 19%
MCF7 [31]
  Activity: Dose-dependent-effect
[32]
  Activity: Non-toxic
4T1-Luc [33]
  Activity: Active
MCF7 [34]
  Activity: 11.6%
MCF7 [35]
  Activity: Active

Reference: ChEMBL document CHEMBL6153138, “Discovery of Novel Aromatic Urea-Imidazole Salt Derivatives for Cancer Therapy via Targeting ERK1/2” (J Med Chem, 2025)
